Assays:
[1] = tested on: sperm cells; test: Outgoing quality control: progressively motile cells per straw after freeze-thaw; type: cell-based, bovine; settings: NaF 0-6 mM in SVFEM
Procedure: After 90 minutes of equilibration at 4° C. the samples were cryoprotected by adding TRIS B (which contains glycerol) to a final concentration of 20% v/v of sample in 3 separate additions, 15 minutes apart. The concentration of progressively motile cells was determined using the Hamilton Thorne IVOS II with HTCasa Animal Breeders II software set to the same capture settings listed above, but with a Xenon light source and an Olympus 10× UplanSApo objective. The cryoprotected sample was diluted to final live, motile cell concentration, 2.5 M/mL, in Packaging Extender and placed in Mini Straws which hold 0.25 mL volume (IMV technologies, Maple Grove, Minn. USA) using an MX4 straw filling and sealing machine (IMV technologies, Maple Grove, Minn. USA). Filled straws were rapidly cooled using a freeze tunnel before storage in liquid nitrogen.
Outgoing Quality Control Assessment: To assess the number of motile cells that survived the freezing process a single straw is thawed in a 37° C. water bath for 45 seconds. The straw is then plunged into a pre-warmed Eppendorf tube. The sample is then gently vortexed 10 seconds to homogenize the sample. After which 20 μLs of sample is added to 20 μLs of QC diluent, gently vortexed for 5 seconds, and read on the CASA fluorescent settings described above.

[2] = tested on: sperm cells; test: Progressive motility of extended ejaculate stored at 19° C. (CASA); type: cell-based, bovine; settings: SVFEM supplemented with 3 mM NaF normalized to 0 mM NaF; 24 hours; N=8
Procedure: Progressive motile % was determined using a CASA system. N=10 paired ejaculates.
Ejaculate extension and Incoming Quality Assessment: The volume of the ejaculate was determined using a serological pipette and evenly divided into two tubes. Immediately, within 15 minutes, the SVFEM extender was added in a 1:1 ratio to the SVFEM extended half of the split ejaculate. […] On arrival, GTLS antibiotic solution was added at a 2% v/v of ejaculate.
Within 45 minutes of initial ejaculate collection, the cell concentration and incoming motility parameters were collected. Concentration was determined using a Nucleocounter SP-100™ with Reagent S100 and SP100 cassettes (ChemoMetec Allerod, Denmark). Motility characteristics were calculated by diluting 10 μL sample in 990 μL motility diluent and reading 7 frames each in 2 chambers of Leja 4 chamber capillary slides with a known chamber depth on a Hamilton Thorne IVOS II using HTCasa II software at 60 Hz frame capture speed in a 37° C. enclosed stage with a Zeiss 1× objective.

[3] = tested on: sperm cells; test: Motility of semen samples after 24-hour storage in media (Examples 4-7, 10, 11); type: cell-based, Angus bull; settings: Example 10; samples stored for 24 hours
Procedure: Semen sample creation: The media of Example 1 is mixed with semen in a 1:1 volume ratio. Optimal performance is seen when the media was warmed to 37° C. prior to mixing with Angus bull semen, and when the media is added to semen between 10 and 30 minutes post-ejaculation. The media remains effective, however, when mixed with cells 1 hour after ejaculation. After the addition of the media, cells are stored at 19° C. […] In FIG. 33 p=0.017, in a paired t-test. […] Semen samples from Angus bulls (n=4) were taken and tested at the collection, then after storing in the media of Example 1 (SVFEM) for 24 hours. […] Another test was performed to compare samples after 24-hour storage. Semen samples from Angus bulls (n=10) were taken and combined with media. Samples using the inventive media SVFEM were compared to control samples using conventional media. Samples were analyzed to determine whether motility of cells was lost due to storage.

Compound | number of motile cells which survive a freeze/thaw after 24 hours' extension [1] | fall of % progressive motile cells after staining below paired SVFEM group [2] | effect of eliminating the ingredient from SVFEM on motility [3]
[F-].[Na+] [NaF, sodium fluoride] | improved efficacy | at least 20% | –
phosphatidylserine [PS] | – | – | drop in motility
